Laboratory results reported in US20170273922A1, “UREA AND BIS-UREA BASED COMPOUNDS AND ANALOGUES THEREOF USEFUL IN THE TREATMENT OF ANDROGEN RECEPTOR MEDIATED DISEASES OR DISORDERS” (THE ROYAL INSTITUTION FOR THE ADVACEMENT OF LEARNING/MCGILL …, priority 2014, published 2017).
Where a chain is given by its changes, count along the chain named. Entries after “also recorded” stand apart in the source; their conditions may differ.

Experiments:
[1] = target: T1, IRF3DBD-AR(1-547) (Homo sapiens, UniProt P10275); experiment: IRF3DBD-AR(1-547) ISRE-luc reporter assay; assay type: cell-based; conditions: 24 h; for inhibition of IRF3DBD-AR(1-547)-mediated ISRE-luc activation: HEK293 cells; for inhibition of IRF3-AR(1-547)-dependent ISRE-luc reporter activity: PC3 cells
T1 construct: IRF3-AR(1-547) is the fusion of IRF3 DBD with the AR NTD (1-547); expressed in transfected cells
T1 sequence (P10275 1-547): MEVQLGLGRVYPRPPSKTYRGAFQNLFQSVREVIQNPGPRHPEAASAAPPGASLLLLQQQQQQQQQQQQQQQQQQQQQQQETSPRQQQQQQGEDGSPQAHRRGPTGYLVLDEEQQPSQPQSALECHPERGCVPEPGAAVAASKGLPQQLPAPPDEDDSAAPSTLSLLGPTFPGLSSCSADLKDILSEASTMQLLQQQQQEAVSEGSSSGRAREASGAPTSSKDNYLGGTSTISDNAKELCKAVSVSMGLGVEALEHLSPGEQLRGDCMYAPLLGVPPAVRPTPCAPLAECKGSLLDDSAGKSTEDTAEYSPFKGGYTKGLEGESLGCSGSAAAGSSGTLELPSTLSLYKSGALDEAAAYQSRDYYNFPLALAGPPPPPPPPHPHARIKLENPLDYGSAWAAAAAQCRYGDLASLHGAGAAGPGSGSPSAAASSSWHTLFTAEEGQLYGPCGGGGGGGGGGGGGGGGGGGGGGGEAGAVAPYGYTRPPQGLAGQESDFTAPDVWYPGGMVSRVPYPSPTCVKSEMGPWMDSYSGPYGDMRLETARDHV

[2] = tested on: PSA expression in LNCaP cells; experiment: Western blot of PSA expression in LNCaP cells; assay type: cell-based; conditions: 24 h; for suppression of PSA expression in LNCaP cells (FIG. 19C): whole medium
Protocol: FIG. 11: A) Compounds 562 and 746 suppressed DHT-induced AR activation in LNCaP cells which endogenously express the T877A mutant; B) Western blot analysis indicated compound 746 at 2.5 μM suppressed DHT-induced expression of the PSA in LNCaP cells. […] ENZ, enzalutamide; BIC, bicalutamide; EPI, EPI-001.
(§1) Experiments were in duplicate and repeated three times. […] LNCaP cells in whole medium were exposed to DMSO vehicle control or compounds for 24 h.

[3] = target: T2, endogenous AR T877A mutant in LNCaP cells (Homo sapiens, UniProt P10275, T878A); experiment: PSA-luc reporter assay in LNCaP cells (endogenous AR T877A mutant); assay type: cell-based
T2 construct: LNCaP cells, which express endogenous AR T877A mutant; endogenous in cells; host or cells: LNCaP
T2 sequence (P10275 1-920 T878A): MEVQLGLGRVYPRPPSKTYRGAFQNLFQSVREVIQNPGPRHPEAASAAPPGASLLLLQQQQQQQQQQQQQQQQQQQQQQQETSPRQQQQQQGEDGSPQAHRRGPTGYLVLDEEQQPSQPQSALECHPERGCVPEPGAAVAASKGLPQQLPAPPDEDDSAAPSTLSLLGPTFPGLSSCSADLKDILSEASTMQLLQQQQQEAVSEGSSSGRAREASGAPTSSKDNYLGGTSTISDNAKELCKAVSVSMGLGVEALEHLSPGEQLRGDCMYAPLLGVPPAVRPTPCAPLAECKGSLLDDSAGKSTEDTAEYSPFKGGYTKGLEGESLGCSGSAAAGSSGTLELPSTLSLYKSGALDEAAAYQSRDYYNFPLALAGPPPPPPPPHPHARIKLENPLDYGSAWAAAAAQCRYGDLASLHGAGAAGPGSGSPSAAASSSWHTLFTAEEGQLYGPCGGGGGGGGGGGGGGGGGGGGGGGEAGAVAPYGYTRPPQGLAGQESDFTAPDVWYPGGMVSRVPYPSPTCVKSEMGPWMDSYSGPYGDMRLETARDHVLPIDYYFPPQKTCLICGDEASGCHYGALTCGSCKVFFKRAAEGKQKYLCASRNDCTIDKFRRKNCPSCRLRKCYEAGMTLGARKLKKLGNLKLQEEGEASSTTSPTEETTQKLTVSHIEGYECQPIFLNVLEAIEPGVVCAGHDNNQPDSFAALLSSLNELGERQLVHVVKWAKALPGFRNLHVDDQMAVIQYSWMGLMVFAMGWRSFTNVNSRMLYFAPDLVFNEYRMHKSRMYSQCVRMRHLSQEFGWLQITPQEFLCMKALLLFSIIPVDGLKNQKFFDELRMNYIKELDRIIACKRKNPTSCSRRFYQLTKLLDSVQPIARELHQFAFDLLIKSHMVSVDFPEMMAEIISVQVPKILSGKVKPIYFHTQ
Protocol: as §1

[4] = target: T3, WT full-length AR (Homo sapiens, UniProt P10275); experiment: WT full-length AR PSA-luc reporter assay (DHT-induced) in transfected cells; conditions: 24 h; for inhibition of DHT-induced activation of WT full-length AR (PSA-luc): 10 nM DHT; for agonism of full-length AR WT (PSA-luc): absence of DHT, PC3 cells
T3 sequence (P10275 1-920): T2 sequence (P10275 1-920 T878A) with A878T

Compound	inhibition of IRF3DBD-AR(1-547)-mediated ISRE-luc activation [1]	suppression of PSA expression in LNCaP cells (FIG. 19C) [2]	inhibition of DHT-induced activation of endogenous AR in LNCaP cells (PSA-luc) ([3]; 24 h)	effect of increasing DHT from 1 nM to 10 nM on inhibitory activity in LNCaP cells ([3]; PSA-luc, 24 h)	inhibition of DHT-induced activation of WT full-length AR (PSA-luc) [4]	agonism of full-length AR WT (PSA-luc) [4]	inhibition of IRF3-AR(1-547)-dependent ISRE-luc reporter activity [1]	suppression of PSA expression in LNCaP cells (FIG. 11B) ([2]; 10 nM DHT)	IC50 ([3]; FIG. 11)	suppression of DHT-induced expression of the PSA in LNCaP cells ([2]; 2.5 μM, 10 nM DHT)	inhibitory activity compared with EPI at 25 μM (FIG. 11) ([3]; compound at 2.5 μM)
O=C(Nc1cccc(C(F)(F)F)c1)Nc1ccc([N+](=O)[O-])c(C(F)(F)F)c1 [Compound 442]	suppressed	dose-dependently suppressed	potently inhibit; also recorded: suppressed	not competed out	dose-dependently suppressed; also recorded: dose-dependently inhibit	non-agonist					
N#Cc1ccc(NC(=O)Nc2cccc(C(F)(F)F)c2)cc1C(F)(F)F [Compound 467]	suppressed	dose-dependently suppressed	potently inhibit; also recorded: suppressed		dose-dependently suppressed; also recorded: dose-dependently inhibit	non-agonist					
N#Cc1ccc(NC(=O)Nc2cccc(C(F)(F)F)c2)cc1Cl [Compound 492]					dose-dependently suppressed; also recorded: dose-dependently inhibit	non-agonist					
O=C(N/C=C/c1cccc(C(F)(F)F)c1)Nc1ccncn1 [Compound 562]	targeting the AR-NTD; also recorded: target the AR-NTD		suppressed; also recorded: potently inhibited; also recorded: good activity		dose-dependently inhibit		potently inhibit	suppressed	~1 µM		
O=C(Nc1ccc(Br)nc1)Nc1cc(C(F)(F)F)cc(C(F)(F)F)c1 [Compound 566]	targeting the AR-NTD; also recorded: target the AR-NTD										
O=C(Nc1cccc(C(F)(F)F)c1)Nc1ccc(NC(=O)c2ccccc2F)c(C(F)(F)F)c1 [Compound 746]	targeting the AR-NTD; also recorded: target the AR-NTD		suppressed; also recorded: potently inhibited; also recorded: good activity		dose-dependently inhibit		potently inhibit	suppressed		suppressed	greater inhibitory activity than EPI at 25 μM
